In patent US4497803A, “Inclusion compound of lankacidin-group antibiotic and use thereof” (priority 1982, dated 1985):
≈ marks a conversion by molar mass, not a printed value. Like-named read-outs stand apart in the source and are kept apart here.

How the values were obtained:
[1] = Solubility of C8-P and C14-P in CD solution, shaken one hour (Example 2); assay type: physicochemical
Experimental: (§1) Powdery lankacidin C was added to an aqueous solution of cyclodextrin (hereinafter referred to as "CD") to have 4 mg/ml of the lankacidin C contained. After the mixture was stirred with a mixer, it was shaken at 5° C. for 2 hours, and passed through filter paper. The absorbancy of the filtrate was measured at 227-229 nm to determine concentration of the lankacidin C.
Solubilities of lankacidin C 8-propionate (hereinafter referred to as "C8-P"), and lankacidin C 14-propionate (hereinafter referred to as "C14-P") in a solution of CD were measured in the same manner as that of Example 1 except that the shaking was continued for one hour.

[2] = Solubility of lankacidin-group in β-CD solution (10^-2 Mol/l), shaken 30 minutes to one hour (Example 4); assay type: physicochemical; settings: for solubility: read-out: Solubility; for ratio: Solubility in a 10^-2 Mol/l solution of CD/solubility in water: β-CD 10^-2 Mol/l vs water
Experimental: as §1
The solubility of lankacidin-group in a solution of β-CD (10^-2 Mol/l) were measured in the same manner as that of Example 1 except that the shaking was continued for 30 minutes to one hour.

[3] = Solubility of inclusion compound in water; assay type: physicochemical
Experimental: The lankacidin-group is added to each of solutions containing various amounts of cyclodextrin. The minimum concentration of cyclodextrin which dissolves the maximum amount of the lankacidin-group compound and practical concentrations thereof are determined on the basis of amounts of the lankacidin-group compound dissolved in the cyclodextrin solutions. Then, the molar ratio of cyclodextrin to lankacidin-group compound is calculated by the following equation:
Molar ratio=[Molarity of cyclodextrin]:[(Saturation molarity of lankacidin-group compound in a certain concentration of cyclodextrin-solution)-(saturation molarity of lankacidin-group compound in an aqueous solution)].
Moreover, a large amount of the present inclusion compound is dissolved in water and it is kept stably therein. Solubility of the inclusion compound in water is greater than that of landacidin-group compounds in water, when the amount of the inclusion compound dissolved is calculated in terms of lankacidin-group compound, and than saturation concentration of cyclodextrin in water so far as cyclodextrin contained in the inclusion compound is concerned (Table 2).
(1) Solubility of lankacidingroup in water.
(2) Solubility of lankacidingroup in M/100 cyclodextrin solution.
(3) Concentration of cyclodextrin of (2).
(4) Solubility (maximum) of the present inclusion compound (calculated in
terms of lankacidingroup contained) in water.
(5) Concentration of cyclodextrin contained in the inclusion compound of […]

[4] = Solubility of lankacidin C in aqueous cyclodextrin solution, shaken at 5° C. for 2 hours (Example 1); assay type: physicochemical
Experimental: as §1

[5] = Stability of lankacidin A and C in methanolic aqueous solutions, 40° C., HPLC (Example 7); assay type: physicochemical; settings: for Residual rate / remaining at 6 h: 10 μg/ml, pH 7.0, 40° C.; for Residual rate: 0 hr; for remaining at 6 h: read-out: Residual rate
Experimental: 5 ml each of a methanolic solution containing lankacidin A or C in a concentration of 100 μg per ml was added to 45 ml each of pH 4.5 and pH 7.0 buffer solutions and a buffer solution containing β-cyclodextrin.
Each mixture was placed in a glass vessel, and then sealed. While the mixtures were kept in the vessel at 40° C., 5 ml each was taken out from time to time and extracted with ethyl acetate. The organic layers were dried over anhydrous sodium sulfate and the concentrations of the lankacidin A or C was measured with high-performance liquid chromatography (HPLC).
Apparatus: Water Associates ALC/GPC 240 (Waters Associates Inc., U.S.A.)
Column: μPoracil 30 cm×3.9 mm.phi.
Eluent: n-Hexane: isopropyl alcohol: acetic acid (75:25:0.2).

St. aureus 209P = assay: Stability of inclusion compound of lankacidin-group (24° C., for 6 days): antibacterial activity by paper disk assay; assay type: cell-based; settings: methanol, 100 μg/ml
Experimental: The inclusion compound of the present invention is stable in an aqueous solution, although it splits into lankacidin-group moiety and cyclodextrins moiety, when it is in the form of solution or powder, by contacting it with organic solvents (e.g., ethyl acetate, methyl isobutyl ketone) or various carriers (e.g., silica gel, high-porous resins). […] In comparing the antibacterial activity, concentrations of the inclusion compound are calculated in terms of lankacidin-group compound from which the inclusion compound is prepared.
Stability of inclusion compound of lankacidin-group
*1 Paper disk assay using Trypticase soy agar (Baltimore Biologicals Ltd.
U.S.A.) as test culture media.
*2 1000 μg/ml, Lankacidingroup is stable in methanol.
*3 Aqueous solution of the inclusion compound with cyclodextrin (1000
μg/ml calculated in terms of lankacidingroup)

[6] = Solubility in β-CD solution, shaken 16 hours (Example 3); assay type: physicochemical
Experimental: as §1
The solubilities of lankacidin A, lankacidin C and lankacidinol in a β-CD solution were measured in the same manner as that of Example 1 except that the shaking was continued for 16 hours.

[7] = aqueous β-cd solution, β-CD 10^-2 Mol/l
[8] = aqueous β-cd solution, β-CD 10^-3 Mol/l
[9] = aqueous β-cd solution, β-CD 10^-4 Mol/l
[10] = aqueous γ-cd solution, γ-CD 10^-2 Mol/l
[11] = aqueous γ-cd solution, γ-CD 10^-3 Mol/l
[12] = aqueous γ-cd solution, γ-CD 10^-4 Mol/l
[13] = aqueous β-cyclodextrin solution, β-CD 10^-2 Mol/l

## CCC(=O)OC1C=CC(C)=CC(NC(=O)C(C)=O)C2(C)C(=O)OC(CC(O)C=CC(C)=CC1)C(C)C2=O (centres unmarked) [C8-P, lankacidin C 8-propionate]
[1]; CD solutions
  Solubility in CD solution, C8-P compared with C14-P: better solubility than that of C14-P
[1]; [7]
  solubility at 1 h: 3840 µg/mL (≈ 7450 µM)
[1]; [8]
  solubility at 1 h: 328 µg/mL (≈ 636 µM)
[1]; [9]
  solubility at 1 h: 46 µg/mL (≈ 89.2 µM)
[1]; [10]
  solubility at 1 h: 1610 µg/mL (≈ 3120 µM)
[1]; [11]
  solubility at 1 h: 249 µg/mL (≈ 483 µM)
[1]; [12]
  solubility at 1 h: 54 µg/mL (≈ 105 µM)
[1]; water, β-CD, CD 0 Mol/l
  solubility at 1 h: 18 µg/mL (≈ 34.9 µM)
[1]; water, γ-CD, CD 0 Mol/l
  solubility at 1 h: 19 µg/mL (≈ 36.9 µM)

## CCC(=O)OC1C=CC(C)=CCC(O)C=CC(C)=CC(NC(=O)C(C)=O)C2(C)C(=O)OC(C1)C(C)C2=O (centres unmarked) [C14-P, lankacidin C 14-propionate]
[1]; [7]
  solubility at 1 h: 159 µg/mL (≈ 308 µM)
[1]; [8]
  solubility at 1 h: 67 µg/mL (≈ 130 µM)
[1]; [9]
  solubility at 1 h: 21 µg/mL (≈ 40.7 µM)
[1]; [10]
  solubility at 1 h: 273 µg/mL (≈ 529 µM)
[1]; [11]
  solubility at 1 h: 114 µg/mL (≈ 221 µM)
[1]; [12]
  solubility at 1 h: 35 µg/mL (≈ 67.9 µM)
[1]; water, β-CD, CD 0 Mol/l
  solubility at 1 h: 19 µg/mL (≈ 36.9 µM)
[1]; water, γ-CD, CD 0 Mol/l
  solubility at 1 h: 19 µg/mL (≈ 36.9 µM)

## CC(=O)OC1C=CC(C)=CC(NC(=O)C(C)=O)C2(C)C(=O)OC(CC(OC(C)=O)C=CC(C)=CC1)C(C)C2=O (centres unmarked) [Lankacidin C 8,14-diacetate, lankacidin C 8,14-diacetate]
[2]; [13]
  solubility: 681 µg/mL (≈ 1250 µM)
[2]; β-CD 0 Mol/l (water)
  solubility: 16.2 µg/mL (≈ 29.8 µM)
[2]
  ratio: Solubility in a 10^-2 Mol/l solution of CD/solubility in water: 42.0

## CC(=O)OC1C=CC(C)=CC(NC(=O)C(C)=O)C2(C)C(=O)OC(CC(O)C=CC(C)=CC1)C(C)C2=O (centres unmarked) [Lankacidin C 8-acetate, lankacidin C 8-acetate]
[2]; [13]
  solubility: 2770 µg/mL (≈ 5520 µM)
[2]; β-CD 0 Mol/l (water)
  solubility: 74.3 µg/mL (≈ 148 µM)
[2]
  ratio: Solubility in a 10^-2 Mol/l solution of CD/solubility in water: 37.3

## CCCC(=O)OC1C=CC(C)=CC(NC(=O)C(C)=O)C2(C)C(=O)OC(CC(O)C=CC(C)=CC1)C(C)C2=O (centres unmarked) [Lankacidin C 8-butylate]
[2]; [13]
  solubility: 404 µg/mL (≈ 763 µM)
[2]; β-CD 0 Mol/l (water)
  solubility: 9 µg/mL (≈ 17 µM)
[2]
  ratio: Solubility in a 10^-2 Mol/l solution of CD/solubility in water: 44.9

## CCCC(=O)OC1C=CC(C)=CCC(O)C=CC(C)=CC(NC(=O)C(C)=O)C2(C)C(=O)OC(C1)C(C)C2=O (centres unmarked) [Lankacidin C 14-butylate]
[2]; [13]
  solubility: 118 µg/mL (≈ 223 µM)
[2]; β-CD 0 Mol/l (water)
  solubility: 17 µg/mL (≈ 32.1 µM)
[2]
  ratio: Solubility in a 10^-2 Mol/l solution of CD/solubility in water: 6.94

## CC(=O)C(=O)NC1C=C(C)C=CC(O)CC=C(C)C=CC(O)CC2OC(=O)C1(C)C(=O)C2C (centres unmarked) [Lankacidin C, lankacidin C]
[3]; m/100 cyclodextrin solution, M/100 cyclodextrin, (3) cyclodextrin 11.3 mg/ml, read-out: (2) Solubility of lankacidin-group in M/100 cyclodextrin solution
  solubility: 3540 µg/mL (≈ 7700 µM)
[3]; water, read-out: (1) Solubility of lankacidin-group in water
  solubility: 268 µg/mL (≈ 583 µM)
[4]; [7]
  solubility at 2 h: 3730 µg/mL (≈ 8120 µM)
[4]; [8]
  solubility at 2 h: 650 µg/mL (≈ 1410 µM)
[4]; [9]
  solubility at 2 h: 280 µg/mL (≈ 609 µM)
[4]; [10]
  solubility at 2 h: 2390 µg/mL (≈ 5200 µM)
[4]; [11]
  solubility at 2 h: 460 µg/mL (≈ 1000 µM)
[4]; [12]
  solubility at 2 h: 260 µg/mL (≈ 566 µM)
[4]; aqueous γ-cyclodextrin solution, γ-CD 10^-1 Mol/l
  solubility at 2 h: 3790 µg/mL (≈ 8250 µM)
[4]; water, β-CD, CD 0 Mol/l
  solubility at 2 h: 260 µg/mL (≈ 566 µM)
[4]; water, γ-CD, CD 0 Mol/l
  solubility at 2 h: 260 µg/mL (≈ 566 µM)
[4]; β-CD and γ-CD solution
  Solubility in CD solution: high solubility
[5]; no β-cyclodextrin
  Residual rate: 100%
[5]; β-cyclodextrin 10 mg/ml
  Residual rate: 100%
[5]; 1000 times β-CD by weight added
  Effect of β-cyclodextrin on stability in methanolic aqueous solutions: increased stabilities
[5]; methanolic aqueous buffer, no β-cyclodextrin
  remaining at 6 h: 43.7%
[5]; methanolic buffer with β-cyclodextrin, β-cyclodextrin 10 mg/ml
  remaining at 6 h: 88.2%
St. aureus 209P; 0 day
  Antibacterial activity, inhibition diameter: 28.25 mm
St. aureus 209P; 3 days at 24° C.
  Antibacterial activity, inhibition diameter: 29.5 mm
St. aureus 209P; 6 days at 24° C.
  Antibacterial activity, inhibition diameter: 29.5 mm
[6]; aqueous β-cd solution, β-CD 2 × 10^-3 Mol/l
  solubility at 16 h: 934 µg/mL (≈ 2030 µM)
[6]; aqueous β-cd solution, β-CD 2 × 10^-4 Mol/l
  solubility at 16 h: 304 µg/mL (≈ 662 µM)
[6]; aqueous β-cd solution, β-CD 5 × 10^-3 Mol/l
  solubility at 16 h: 1780 µg/mL (≈ 3870 µM)
[6]; aqueous β-cd solution, β-CD 5 × 10^-4 Mol/l
  solubility at 16 h: 409 µg/mL (≈ 890 µM)
[6]; [7]
  solubility at 16 h: 3350 µg/mL (≈ 7290 µM)
[6]; [8]
  solubility at 16 h: 566 µg/mL (≈ 1230 µM)
[6]; [9]
  solubility at 16 h: 262 µg/mL (≈ 570 µM)
[6]; from the vicinity of 10^-3 Mol/l of β-CD
  Solubility in β-CD solution as function of β-CD concentration: increase in proportion to the concentration of β-CD
[6]; water, β-CD 0 Mol/l
  solubility at 16 h: 237 µg/mL (≈ 516 µM)
[6]; β-CD 10^-3 Mol/l, 960 min
  solubility: 715 µg/mL (≈ 1560 µM)
